For orientation: IC50 means the concentration needed to halve the response being measured.

Calls of active or inactive are those of the source.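 How the source made its calls: active means IC50 under 35 µM against the melanocortin-4 receptor MC4R counterscreen signal; inactive means IC50 above 35 µM.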

These results are taken from PubChem BioAssay AID743502 (Broad Institute, 2014).

For this test, the system named is HEK293 transfected MC4R, CRE-luciferase, beta-gal normalized. As to the kind of experiment: MC4R antagonists in CRE-luciferase reporter cells, dose response, counter-screen for LGR2 antagonist project, cell-based, HEK293, beta-gal normalized, luminescence, dry powder (AID 743502). In general terms: In a reporter assay the amount or activity of a reporter protein is the signal.
As for `Cc1ccc(NC(=O)N(C)C[C@@H]2OCCCC[C@H](C)Oc3ccc(NC(=O)C4CCCCC4)cc3C(=O)N([C@H](C)CO)C[C@@H]2C)cc1`, the IC50 was > 35 µM (inactive).

In the case of `C[C@H](CO)N1C[C@H](C)[C@H](CN(C)C(=O)Nc2ccc(F)cc2)OCCCC[C@H](C)Oc2ccc(NC(=O)C3CCCCCC3)cc2C1=O`, the IC50 was > 35 µM (inactive). As to `C[C@H](CO)N1C[C@H](C)[C@H](CN(C)C(=O)Nc2cccc3ccccc23)OCCCC[C@H](C)Oc2ccc(NC(=O)C3CCCCC3)cc2C1=O`, the IC50 was > 35 µM (inactive). With `C[C@H](CO)N1C[C@H](C)[C@H](CN(C)C(=O)Nc2ccccc2F)OCCCC[C@H](C)Oc2ccc(NC(=O)C3CCCCC3)cc2C1=O` the figure was > 35 µM (inactive); with `C[C@H](CO)N1C[C@H](C)[C@H](CN(C)C(=O)Nc2ccc(F)cc2)OCCCC[C@H](C)Oc2ccc(NC(=O)C3CCCC3)cc2C1=O`, > 35 µM (inactive).

On to `C[C@H](CO)N1C[C@H](C)[C@H](CN(C)C(=O)Nc2ccc(Cl)cc2)OCCCC[C@H](C)Oc2ccc(NC(=O)C3CCCCC3)cc2C1=O`, for which the IC50 is > 35 µM (inactive). Next, `C[C@H](CO)N1C[C@H](C)[C@H](CN(C)C(=O)Nc2cccc(F)c2)OCCCC[C@H](C)Oc2ccc(NC(=O)C3CCCCC3)cc2C1=O`: > 35 µM (inactive); `C[C@@H]1CN([C@@H](C)CO)C(=O)c2cc(NC(=O)C3CCCCC3)ccc2O[C@@H](C)CCCCO[C@H]1CN(C)C(=O)Nc1cccc2ccccc12`: > 35 µM (inactive); `C[C@H](CO)N1C[C@H](C)[C@H](CN(C)C(=O)Nc2ccc3ccccc3c2)OCCCC[C@H](C)Oc2ccc(NC(=O)C3CCCCC3)cc2C1=O`: > 35 µM (inactive). With `C[C@H]1CCCCO[C@@H](CN(C)C(=O)Nc2cccc3ccccc23)[C@@H](C)CN([C@@H](C)CO)C(=O)c2cc(NC(=O)C3CCCCC3)ccc2O1` the figure was > 35 µM (inactive).
